# Measured values reported in PMC12668308, “A Novel Antimalarial Agent that Inhibits Protein Synthesis in Plasmodium falciparum” (Angewandte Chemie (International Ed. in English), 2025).
# Columns and labels:
# Test in all cases: [3H]-hypoxanthine incorporation assay
# [1] = test system: Dd2 GNF156 (Dd2 + pfcarl); format: cell-based, Plasmodium falciparum
# Method: (§1) ^[a]72-h [^3H] hypoxanthhine incorporation assay. Data is expressed as mean±s.d..
# (§2) P. falciparum asexual blood stage parasites were cultured in human red blood cells (RBC, Blutspende SRK, Zurich) at a hematocrit of 5% in RPMI 1640 medium. The RPMI 1640 medium (ThermoFisher Scientific #51800−043) was supplemented with the following: 24 mM NaHCO3 (pH 7.3, Sigma-Aldrich #31437−500G-R), 25 mM Hepes (Sigma-Aldrich #H4034−500G), 0.36 mM hypoxanthine (Sigma-Aldrich # H9377−25G), 100 µg mL^-1 neomycin (Sigma-Aldrich #N6386−100G) and 0.5% Albumax II (Thermo Fisher #11021−045). Additionally, 2 mM choline chloride (279 mg/L, Sigma-Aldrich #C7527−100G) was added to the culture to block the induction of sexual commitment as described. ^[31^] The RPMI 1640 medium and components were dissolved in water (Milli-Q purified), stirred for at least 3 h, and then sterile filtered (0.22 μm pore size) with a bottle top filter (Corning # 431118). Parasite cultures were maintained in an atmosphere of 3% O2, 4% CO2, and 93% N2 in air-tight chambers at 37 °C. The [^3H]-hypoxanthine incorporation assay was used to test compound activity in the specific parasite lines as described.^[32^] Briefly, compounds were dissolved in DMSO (10 mM) and diluted in a hypoxanthine-free culture medium. A limiting dilution was performed over a 64-fold range (6-step twofold dilution) in a 96-well plate in duplicates. For every starting concentration, a limiting dilution was performed over a 64-fold range (6-step twofold dilution) in a 96-well plate in two biological duplicates. Parasites were added at 100 µL to each well containing the compound to obtain a final parasitemia of 0.3% and haematocrit of 1.25%. The plates were incubated for 48 h before 0.25 µCi of [^3H]-hypoxanthine was added per well for an additional 24 h. Parasites were harvested on a glass-fiber filter with a Microbeta FilterMate cell harvester (Perkin Elmer, Waltham, USA) and radioactivity was counted using a MicroBeta2 liquid scintillation counter (Perkin Elmer, Waltham, US). The results were recorded, processed by subtraction of the mean background signal obtained from the uninfected RBC controls and expressed as percentage of untreated controls. The fifty percent inhibitory concentration (IC50) was calculated by using nonlinear, four parameter (variable slope) curve fitting as described ^[33^] after importing into GraphPad Prism (version 8.3.0).
# [2] = test system: P. falciparum K1; format: cell-based, Plasmodium falciparum
# Method: as §1, §2
# [3] = test system: laboratory-selected Dd2 strains; format: cell-based; settings: Plasmodium falciparum, DD2, read-out: IC50 against the laboratory-selected Dd2 strains
# Method: To determine potential cross resistance against compound 31 in parasites harboring mutations that confer resistance to current antimalarials, its activity was assessed against drug‐resistant field isolates as previously described. […] A cross‐resistance was considered when there was more than a 10‐fold shift in the IC50 relative to the NF54 strain. […] Because of this, 31 was tested against laboratory‐selected Dd2 strains, which contained additional resistance variants to preclinical and clinical drug candidates.
# P. falciparum asexual blood stage parasites were cultured in human red blood cells (RBC, Blutspende SRK, Zurich) at a hematocrit of 5% in RPMI 1640 medium. […] Parasites were harvested on a glass-fiber filter with a Microbeta FilterMate cell harvester (Perkin Elmer, Waltham, USA) and radioactivity was counted using a MicroBeta2 liquid scintillation counter (Perkin Elmer, Waltham, US). The results were recorded, processed by subtraction of the mean background signal obtained from the uninfected RBC controls and expressed as percentage of untreated controls. The fifty percent inhibitory concentration (IC50) was calculated by using nonlinear, four parameter (variable slope) curve fitting as described ^[33^] after importing into GraphPad Prism (version 8.3.0).
# [4] = test system: Dd2b2^31-R1.1; format: cell-based, Plasmodium falciparum
# Method: as §2, with “The results were recorded, processed by subtraction of the mean background signal obtained from the uninfected RBC controls and expressed as percentage of untreated controls.” left out
# (§3) 31 was used for resistance selection studies using the strain Dd2b2 (kindly provided by David Fidock). Resistance selection was done as described in ^[34^]. As summarized in Table S3, an initial inoculum of 2 x 10^9 asexual blood stage parasites (at 2-2.5% parasitemia) were cultured in three independent flasks. […] Cloning via limiting dilution was performed to obtain resistant clones for further characterization as described in section 2.2.5.
# [5] = test system: Dd2b2^31-R2.1; format: cell-based, Plasmodium falciparum
# Method: as §2, with “The results were recorded, processed by subtraction of the mean background signal obtained from the uninfected RBC controls and expressed as percentage of untreated controls.” left out
# as §3
# [6] = test system: Dd2b2^31-R2.2; format: cell-based, Plasmodium falciparum
# Method: as §2, with “The results were recorded, processed by subtraction of the mean background signal obtained from the uninfected RBC controls and expressed as percentage of untreated controls.” left out
# as §3
# [7] = test system: Dd2b2^31-R3.1; format: cell-based, Plasmodium falciparum
# Method: as §2, with “The results were recorded, processed by subtraction of the mean background signal obtained from the uninfected RBC controls and expressed as percentage of untreated controls.” left out
# as §3
# [8] = test system: Dd2b2^31-R3.2; format: cell-based, Plasmodium falciparum
# Method: as §2, with “The results were recorded, processed by subtraction of the mean background signal obtained from the uninfected RBC controls and expressed as percentage of untreated controls.” left out
# as §3
# [9] = Plasmodium falciparum, read-out: mean IC50 value ± s.d.
compound,measurement,setting,value
"CN1CCN(Cc2ccc(O)c(NC(=O)c3cccc(Oc4cc(C(F)(F)F)ccn4)c3)c2)CC1 [Compound 31, N-(2-hydroxy-5-((4-methylpiperazin-1-yl)methyl)phenyl)-3-((4-(trifluoromethyl)pyridin-2-yl)oxy)benzamide]",IC50 fold shift relative to Dd2 strain,[1]; Dd2 GNF156,0.7
same,IC50,"[1]; Plasmodium falciparum, DD2, 72 h",6.6 ± 0.5 nM
same,IC50 ratio relative to NF54 strain,[2]; K1,0.7
same,IC50,"[2]; Plasmodium falciparum, K1, 72 h",1.3 ± 0.2 nM
same,IC50,[3],2.4 to 6.6 nM
same,IC50 fold change relative to Dd2b2^WT,[4]; Dd2b2^31-R1.1,2.7
same,IC50,[4]; [9],35.8 ± 11.2 nM
same,IC50 fold change relative to Dd2b2^WT,[5]; Dd2b2^31-R2.1,16.9
same,IC50,[5]; [9],225 ± 35.3 nM
same,IC50 fold change relative to Dd2b2^WT,[6]; Dd2b2^31-R2.2,11.6
same,IC50,[6]; [9],154 ± 26.3 nM
same,IC50 fold change relative to Dd2b2^WT,[7]; Dd2b2^31-R3.1,14.5
same,IC50,[7]; [9],192 ± 35.3 nM
same,IC50 fold change relative to Dd2b2^WT,[8]; Dd2b2^31-R3.2,19.8
same,IC50,[8]; [9],264 ± 40.5 nM
